# Assay results reported in paper PMC8124549, “Antidepressants Differentially Regulate Intracellular Signaling from α1-Adrenergic Receptor Subtypes In Vitro” (International Journal of Molecular Sciences, 2021).
# Like-named read-outs stand apart in the source and are kept apart here.
# Legend:
# α1A-AR = biological target: T1, α1A-AR (Homo sapiens, UniProt P35348); assay: IP-One HTRF inositol phosphate accumulation, PC12 cells; type: cell-based
# T1 construct: gene ADRA1A; human receptor from pcDNA3.1+ plasmid, stably expressed in rat PC12 cells
# T1 sequence (P35348 1-466): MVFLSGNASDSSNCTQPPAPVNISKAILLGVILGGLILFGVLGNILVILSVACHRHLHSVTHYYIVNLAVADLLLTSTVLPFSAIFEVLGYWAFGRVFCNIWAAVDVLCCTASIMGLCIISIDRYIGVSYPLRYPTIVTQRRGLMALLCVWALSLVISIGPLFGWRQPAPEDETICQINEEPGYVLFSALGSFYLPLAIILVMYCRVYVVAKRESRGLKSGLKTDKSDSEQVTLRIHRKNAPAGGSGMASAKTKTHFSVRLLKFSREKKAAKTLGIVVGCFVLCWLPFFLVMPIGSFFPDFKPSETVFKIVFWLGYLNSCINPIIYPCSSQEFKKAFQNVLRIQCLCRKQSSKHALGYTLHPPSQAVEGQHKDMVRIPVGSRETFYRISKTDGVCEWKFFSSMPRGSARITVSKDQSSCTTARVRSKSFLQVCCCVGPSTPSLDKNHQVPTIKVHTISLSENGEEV
# α1B-AR = biological target: T2, α1B-AR (Homo sapiens, UniProt P35368); assay: as above; type: cell-based
# T2 construct: gene ADRA1B; human receptor from pcDNA3.1+ plasmid, stably expressed in rat PC12 cells
# T2 sequence (P35368 1-520): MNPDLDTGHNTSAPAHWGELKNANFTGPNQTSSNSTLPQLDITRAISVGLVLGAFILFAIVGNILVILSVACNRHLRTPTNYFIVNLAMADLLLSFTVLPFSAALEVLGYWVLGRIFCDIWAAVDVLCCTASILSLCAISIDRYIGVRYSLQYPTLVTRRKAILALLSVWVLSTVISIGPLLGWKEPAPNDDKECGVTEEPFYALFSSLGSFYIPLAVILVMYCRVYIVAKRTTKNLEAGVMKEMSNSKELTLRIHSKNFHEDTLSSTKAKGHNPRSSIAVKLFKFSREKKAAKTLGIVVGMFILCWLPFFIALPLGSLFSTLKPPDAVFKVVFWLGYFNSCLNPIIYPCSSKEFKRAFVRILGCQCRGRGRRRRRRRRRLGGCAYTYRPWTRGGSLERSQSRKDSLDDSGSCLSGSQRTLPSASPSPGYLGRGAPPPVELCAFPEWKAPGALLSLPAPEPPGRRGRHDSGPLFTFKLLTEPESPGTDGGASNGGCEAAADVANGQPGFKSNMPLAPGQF
"IC50 (α1A-AR; antagonism of noradrenaline at EC90, 37 °C, pH 7)",IC50 (α1B-AR),IC50 (α1A-AR; read-out: α1A (converted)),SMILES
–,7.94 µM,–,CNCCCN1c2ccccc2CCc2ccccc21 [desipramine]
–,8.13 µM,0.468 µM,CN(C)CCCN1c2ccccc2CCc2ccccc21 [imipramine]

# The next lines start with the compound.
SMILES,"IC50 (α1A-AR; antagonism of noradrenaline at EC90, 37 °C, pH 7)",IC50 (α1B-AR),IC50 (α1A-AR; read-out: α1A (converted))
COc1cccc(OC)c1OCCNCC1COc2ccccc2O1 (stereo not drawn) [WB4101],1 × 10^−8.6 M,–,–
CN(C)CCCC1(c2ccc(F)cc2)OCc2cc(C#N)ccc21 (stereo not drawn) [citalopram],–,> 100 µM,–
CNCCC(Oc1ccc(C(F)(F)F)cc1)c1ccccc1 (stereo not drawn) [fluoxetine],–,> 100 µM,–
